Values after ≈ are worked out from the molar mass of the structure shown.
Legend:
Type in all cases: cell-based
[1] = tested on: Testviren; test: Antiviral activity in cell culture (CPE, HeLa or Vero cells); conditions: cell cultures infected with test viruses; qualitative statement
[2] = tested on: Staph. aureus (503); test: Agar dilution test according to Lorian (antibacterial activity); conditions: Staphylococcus aureus
Experimental: (§1) Die antibakterielle Wirksamkeit der erfindungsgemäßen Verbindungen wurde im Agar-Verdünnungstest nach Lorian (Antibiotics in Laboratory Medicine, Williams & Wilkins, Baltimore/London, 1980) bestimmt. Dabei wurden die Präparate in einer geometrischen Verdünnungsreihe mit dem Faktor 2 in Müller Hinton Agar verdünnt. Eine Petrischale enthielt nur Müller Hinton Agar und diente zur Kontrolle des Bakterienwachstums. Die Petrischalen wurden dann mit einem Denley-Multipoint-Inokulator, welcher 0,6 ul einer 1 : 100 verdünnten 18-Stunden-Kultur der Testbakterien übertrug, mit den entsprechenden Testbakterien beimpft. Nach 16 bis 18 Stunden Inkubation bei 37^. C wurden die Petrischalen makroskopisch auf Bakterienwachstum untersucht.
(§2) Die niedrigste Konzentration der erfindungsgemäßen Verbindungen, welche das Bakterienwachstum noch vollständig verhinderte, wurde als MIC (Minimum Inhibitory Concentration) angenommen.
(§3) In Tabelle 4 ist die Wirkung (Angabe des MIC in µg/ml) von verschiedenen erfindungsgemäßen Verbindungen gegen folgende Bakterien aufgeführt: • Staph. aureus (SG 511), Staph. aureus (285), Staph. aureus (503), Strept. pyogenes (308 A), Strept pyogenes (77 A), Strept. faecium (D).

[3] = tested on: Staph. aureus (285); test: as above; conditions: Staphylococcus aureus
Experimental: as §1, §2, §3

[4] = tested on: Staph. aureus (SG 511); test: as above; conditions: Staphylococcus aureus
Experimental: as §1, §2, §3

[5] = tested on: Strept. faecium (D); test: as above; conditions: Enterococcus faecium
Experimental: as §1, §2, §3

[6] = tested on: E. coli (DC 2); test: Antibacterial activity against gram-negative bacteria; conditions: Escherichia coli, read-out: MHK
Experimental: as §1, §2
(§4) Überraschend zeigen die Dicarbonsäure-Addukte des Nigericins auch eine Wirkung gegen gramnegative Bakterien. So besitzt beispielsweise die Substanz aus Beispiel 32 gegen E. coli eine MHK von 0,55 µg/ml, gegen E. coli (DC 2) eine MHK von 25,0 µg/ml und gegen Entrob. Cloacae (1321 E) eine MHK von 250 µg/ml.

[7] = tested on: E. coli; test: as above; conditions: Escherichia coli, read-out: MHK
Experimental: as §1, §2, §4

[8] = tested on: Entrob. Cloacae (1321 E); test: as above; conditions: Enterobacter cloacae, read-out: MHK
Experimental: as §1, §2, §4

Row | SMILES | antivirale Wirkung [1] | MIC [2] | MIC [3] | MIC [4] | MIC [5] | MIC [6] | MIC [7] | MIC [8]
1 | CO[C@@H]1C[C@@H](C[C@H]2CC[C@H](C)[C@H]([C@@H](C)C(=O)O)O2)O[C@]2(O[C@](C)([C@H]3CC[C@@](C)([C@@H]4O[C@@H]([C@H]5O[C@@](O)(CO)[C@H](C)C[C@@H]5C)C[C@@H]4C)O3)C[C@H]2C)[C@@H]1C [Beispiel 1, Nigericin] | ausgezeichnete antivirale Wirkung |  |  |  |  |  |  | 
2 | COC1CC(CC2CCC(C)C(C(C)C(=O)O)O2)OC2(OC(C)(C3CCC(C)(C4OC(C5OC(O)(COC(=O)CCCC(=O)O)C(C)CC5C)CC4C)O3)CC2C)C1C (centres unmarked) [Beispiel 32] |  | 0.39 µg/mL (≈ 0.465 µM) | 0.39 µg/mL (≈ 0.465 µM) | 0.39 µg/mL (≈ 0.465 µM) | 0.39 µg/mL (≈ 0.465 µM) | 25 µg/mL (≈ 29.8 µM) | 0.55 µg/mL (≈ 0.655 µM) | 250 µg/mL (≈ 298 µM)
